What all share (assay type): biochemical
For one test, the target named is T1, MKK7 (Homo sapiens, UniProt O14733).
T1 sequence (O14733 1-419): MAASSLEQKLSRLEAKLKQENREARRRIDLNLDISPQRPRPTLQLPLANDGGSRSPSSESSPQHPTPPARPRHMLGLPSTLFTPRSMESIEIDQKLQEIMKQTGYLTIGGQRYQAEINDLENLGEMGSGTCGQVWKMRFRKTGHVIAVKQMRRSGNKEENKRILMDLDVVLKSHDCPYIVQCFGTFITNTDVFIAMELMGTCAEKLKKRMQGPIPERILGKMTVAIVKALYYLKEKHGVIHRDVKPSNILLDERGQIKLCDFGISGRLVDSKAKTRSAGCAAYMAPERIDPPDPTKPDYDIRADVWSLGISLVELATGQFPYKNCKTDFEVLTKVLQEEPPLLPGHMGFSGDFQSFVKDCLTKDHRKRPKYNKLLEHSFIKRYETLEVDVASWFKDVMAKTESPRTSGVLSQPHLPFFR
As to the kind of experiment: 33PanQinase enzyme assay, MKK7. The settings on record: ratio IC50(MKK7)/IC50(MKK4). Set-up: purchased ProQinase GmbH, Freiburg, Germany (33PanQinase Assay Service). How it is done: (§1) The kinase activities of the compounds of the invention were measured using the 33PanQinase® Assay Service provided by ProQinase GmbH, Freiburg, Germany. Details of the assay conditions are disclosed on the website of ProQinase (https://www.proginase.com/products-services-biochemical-assay-services/kinase-assays). In brief, all kinase assays were performed in 96-well FlashPlates™ from PerkinElmer (Boston, MA, USA) in a 50 μl reaction volume. The reaction cocktail was pipetted in four steps in the following order: • 20 μl of assay buffer (standard buffer) • 5 μl of ATP solution (in H2O) • 5 μl of test compound (in 10% DMSO) • 20 μl enzyme/subtrate mix
(§2) The reaction cocktails were incubated at 30° C. for 60 minutes. The reaction is stopped with 50 μl of 2% (v/v) H3PO4, plates were aspirated and washed two times with 200 μl 0.9% (w/v) NaCl. Incorporation of ^33Pi was determined with a microplate scintillation counter (Microbeta, Wallac).
(§3) All assays were performed with a BeckmanCoulter/SAGIAN™ Core System.
(§4) In case of single concentration assays, the potency of the test compound is expressed as % residual activity. […] The fitting method used was a least-squares fit.
(§5) Selectivity of test compounds against BRaf, JNK1 and MKK7, altogether denominated as off-targets was calculated by the ratio of IC50 (off-target)/IC50 (MKK4) and categorized as follows: […]

The next test addresses JNK1 (Homo sapiens, UniProt P45983). Nature of the test: 33PanQinase enzyme assay, JNK1. Set-up: purchased ProQinase GmbH, Freiburg, Germany (33PanQinase Assay Service). The following applies: ratio IC50(JNK1)/IC50(MKK4). How it is done: as §1, §2, §3, §4, §5
For the next test, the target named is T2, MKK4 (Homo sapiens, UniProt P45985).
T2 construct: purchased ProQinase GmbH, Freiburg, Germany (33PanQinase Assay Service)
T2 sequence (P45985 1-399): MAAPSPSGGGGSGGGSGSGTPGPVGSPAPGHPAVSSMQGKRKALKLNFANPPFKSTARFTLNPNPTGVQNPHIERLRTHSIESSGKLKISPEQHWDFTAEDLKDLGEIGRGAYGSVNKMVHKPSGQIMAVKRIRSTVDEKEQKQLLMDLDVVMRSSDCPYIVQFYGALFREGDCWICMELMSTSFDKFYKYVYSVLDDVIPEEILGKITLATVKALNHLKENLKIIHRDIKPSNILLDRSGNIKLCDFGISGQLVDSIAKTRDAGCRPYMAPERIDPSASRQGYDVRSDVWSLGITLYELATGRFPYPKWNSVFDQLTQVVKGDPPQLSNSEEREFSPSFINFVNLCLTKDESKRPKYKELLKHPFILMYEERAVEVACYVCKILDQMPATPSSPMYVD
Nature of the test: 33PanQinase enzyme assay, MKK4. The following applies: for IC50: assay 'IC50', read-out: Potency MKK4 (IC50). Here is the method: as §1, §2, §3, §4
Inhibition potency against MKK4 is categorized as follows:
Assay at single concentration (100 nM):

For the next test, the target named is T3, BRaf (Homo sapiens, UniProt P15056).
T3 construct: purchased ProQinase GmbH, Freiburg, Germany (33PanQinase Assay Service)
T3 sequence (P15056 whole entry, species assumed): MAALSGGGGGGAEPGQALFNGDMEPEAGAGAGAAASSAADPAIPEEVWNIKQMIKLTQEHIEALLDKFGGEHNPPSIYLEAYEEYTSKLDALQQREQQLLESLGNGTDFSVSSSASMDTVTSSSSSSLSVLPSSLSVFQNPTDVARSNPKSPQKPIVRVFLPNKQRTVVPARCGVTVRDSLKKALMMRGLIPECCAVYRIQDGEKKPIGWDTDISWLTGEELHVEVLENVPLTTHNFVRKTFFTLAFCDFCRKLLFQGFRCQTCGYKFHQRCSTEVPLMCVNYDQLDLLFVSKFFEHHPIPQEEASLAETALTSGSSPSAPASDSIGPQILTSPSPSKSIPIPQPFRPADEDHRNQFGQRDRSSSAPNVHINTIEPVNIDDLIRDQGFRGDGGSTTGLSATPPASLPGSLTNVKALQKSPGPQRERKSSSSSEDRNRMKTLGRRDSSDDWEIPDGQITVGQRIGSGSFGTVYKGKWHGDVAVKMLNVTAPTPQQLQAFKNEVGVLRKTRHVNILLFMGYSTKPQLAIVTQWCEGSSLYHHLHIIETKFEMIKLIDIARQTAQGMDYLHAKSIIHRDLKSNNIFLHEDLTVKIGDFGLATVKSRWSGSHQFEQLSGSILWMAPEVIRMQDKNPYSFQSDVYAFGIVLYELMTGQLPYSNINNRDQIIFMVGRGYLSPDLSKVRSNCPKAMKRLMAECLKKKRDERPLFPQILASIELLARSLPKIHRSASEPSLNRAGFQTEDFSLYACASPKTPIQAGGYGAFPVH
As to the kind of experiment: 33PanQinase enzyme assay, BRaf. The following applies: ratio IC50(BRaf)/IC50(MKK4). How it is done: as §1, §2, §3, §4, §5

SMILES strings stand for the structures. Some results are limits rather than exact numbers.

Chain of JNK1 (P45983 whole entry): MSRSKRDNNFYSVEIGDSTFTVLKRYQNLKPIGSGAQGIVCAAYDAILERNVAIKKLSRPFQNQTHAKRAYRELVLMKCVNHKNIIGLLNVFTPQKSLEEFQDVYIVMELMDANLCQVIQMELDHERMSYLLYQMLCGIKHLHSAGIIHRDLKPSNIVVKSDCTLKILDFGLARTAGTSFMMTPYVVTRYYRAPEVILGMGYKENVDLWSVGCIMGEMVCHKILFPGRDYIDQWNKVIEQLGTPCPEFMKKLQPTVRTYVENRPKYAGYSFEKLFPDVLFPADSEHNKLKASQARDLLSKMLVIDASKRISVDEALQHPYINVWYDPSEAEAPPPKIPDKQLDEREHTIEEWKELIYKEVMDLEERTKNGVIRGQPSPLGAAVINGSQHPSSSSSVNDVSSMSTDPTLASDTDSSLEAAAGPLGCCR

With `CCCS(=O)(=O)Nc1c(F)ccc(C(=O)c2c[nH]c3ncc(-c4cnc(CF)nc4)cc23)c1F` [Example 207, N-(2,6-difluoro-3-(5-(2-(fluoromethyl)pyrimidin-5-yl)-1H-pyrrolo[2,3-b]pyridine-3-carbonyl)phenyl)propane-1-sulfonamide], the “Selectivity IVIKK7, IC50(off-target)/IC50(MKK4)” value (“Selectivity IVIKK7” below) at MKK7 is “+++ (IC50(off-target)/IC50(MKK4) > 100)”. Also, the “Selectivity JNK1, IC50(off-target)/IC50(MKK4)” value (“Selectivity JNK1” below) on JNK1 is on record as “++ (100 ≥ IC50(off-target)/IC50(MKK4) > 10)”. On MKK4, the IC50 was in the range of 100 to 1000 nM. Further, the “Selectivity Braf, IC50(off-target)/IC50(MKK4)” value (from here on “Selectivity Braf”) at BRaf is given as “+++ (IC50(off-target)/IC50(MKK4) > 100)”.
On to `O=C(c1ccc(F)c(NS(=O)(=O)CCC(F)(F)F)c1F)c1c[nH]c2ncc(-c3ccc(Cl)cc3)cc12` [Example 150, N-(3-(5-(4-chlorophenyl)-1H-pyrrolo[2,3-b]pyridine-3-carbonyl)-2,6-difluorophenyl)-3,3,3-trifluoropropane-1-sulfonamide], for which, on MKK7, the “Selectivity IVIKK7” value is on record as “+++ (IC50(off-target)/IC50(MKK4) > 100)”. Besides, on JNK1, the “Selectivity JNK1” value is “+++ (IC50(off-target)/IC50(MKK4) > 100)”. Also, at MKK4, the half-inhibitory concentration (IC50) is under 100 nM. In addition, the “Selectivity Braf” value on BRaf is given as “+++ (IC50(off-target)/IC50(MKK4) > 100)”.
`CCCS(=O)(=O)Nc1c(F)ccc(C(=O)c2c[nH]c3ncc(-c4cnc(SC(C)C)nc4)cc23)c1F` [Example 197, N-(2,6-difluoro-3-(5-(2-(isopropylthio)pyrimidin-5-yl)-1H-pyrrolo[2,3-b]pyridine-3-carbonyl)phenyl)propane-1-sulfonamide]: on MKK7, the “Selectivity IVIKK7” value is “+++ (IC50(off-target)/IC50(MKK4) > 100)”. In addition, the “Selectivity JNK1” value on JNK1 is listed as “++ (100 ≥ IC50(off-target)/IC50(MKK4) > 10)”. For the same molecule, the IC50 at MKK4 was in the range of 100 to 1000 nM. Further, the “Selectivity Braf” value on BRaf was “+++ (IC50(off-target)/IC50(MKK4) > 100)”.
Consider `CCCS(=O)(=O)Nc1ccc(F)c(C(=O)c2c[nH]c3ncc(-c4ccoc4)cc23)c1F` [Example 56], for which the “Selectivity IVIKK7” value on MKK7 is listed as “+++ (IC50(off-target)/IC50(MKK4) > 100)”. For the same molecule, on JNK1, the “Selectivity JNK1” value is “◯ (3 ≥ IC50(off-target)/IC50(MKK4))”. Further, the IC50 at MKK4 fell in the range of 100 to 1000 nM. Moreover, the “Selectivity Braf” value at BRaf was “◯ (3 ≥ IC50(off-target)/IC50(MKK4))”.
Consider `CCCS(=O)(=O)Nc1ccc(F)c(C(=O)c2c[nH]c3ncc(-c4ccc(N=S(C)(C)=O)cc4)cc23)c1F` [Example 119, N-(3-(5-(4-((dimethyl(oxo)-l6-sulfaneylidene)amino)phenyl)-1H-pyrrolo[2,3-b]pyridine-3-carbonyl)-2,4-difluorophenyl)propane-1-sulfonamide], for which the “Selectivity IVIKK7” value on MKK7 is recorded as “+++ (IC50(off-target)/IC50(MKK4) > 100)”. The “Selectivity JNK1” value on JNK1 is listed as “◯ (3 ≥ IC50(off-target)/IC50(MKK4))”. Further, the concentration for half-maximal inhibition (IC50) at MKK4 fell in the range of 100 to 1000 nM. Moreover, the “Selectivity Braf” value at BRaf was “◯ (3 ≥ IC50(off-target)/IC50(MKK4))”.
With `CCCS(=O)(=O)Nc1c(F)ccc(C(=O)c2c[nH]c3ncc(-c4cnc(SC)nc4)cc23)c1F` [Example 195, N-(2,6-difluoro-3-(5-(2-(methylthio)pyrimidin-5-yl)-1H-pyrrolo[2,3-b]pyridine-3-carbonyl)phenyl)propane-1-sulfonamide], on MKK7, the “Selectivity IVIKK7” value is “+++ (IC50(off-target)/IC50(MKK4) > 100)”. In addition, on JNK1, the “Selectivity JNK1” value is “+++ (IC50(off-target)/IC50(MKK4) > 100)”. For the same molecule, the IC50 on MKK4 was under 100 nM. Besides, on BRaf, the “Selectivity Braf” value is “+++ (IC50(off-target)/IC50(MKK4) > 100)”.
`COc1ncc(-c2cnc3[nH]cc(C(=O)c4cccc(NS(=O)(=O)Cc5ccccc5)c4F)c3c2)cn1` [Example 130, N-(2-fluoro-3-(5-(2-methoxypyrimidin-5-yl)-1H-pyrrolo[2,3-b]pyridine-3-carbonyl)phenyl)-1-phenylmethanesulfonamide]: the “Selectivity IVIKK7” value on MKK7 is recorded as “+++ (IC50(off-target)/IC50(MKK4) > 100)”. On JNK1, the “Selectivity JNK1” value is recorded as “++ (100 ≥ IC50(off-target)/IC50(MKK4) > 10)”. Also, the IC50 on MKK4 lay within 100 to 1000 nM. Moreover, the “Selectivity Braf” value on BRaf is on record as “++ (100 ≥ IC50(off-target)/IC50(MKK4) > 10)”.
Consider `CCCS(=O)(=O)Nc1c(F)ccc(C(=O)c2c[nH]c3ncc(-c4cnc(C)cc4C)cc23)c1F` [Example 171, N-(3-(5-(4,6-dimethylpyridin-3-yl)-1H-pyrrolo[2,3-b]pyridine-3-carbonyl)-2,6-difluorophenyl)propane-1-sulfonamide], for which the “Selectivity IVIKK7” value at MKK7 is reported as “+++ (IC50(off-target)/IC50(MKK4) > 100)”. In addition, the “Selectivity JNK1” value on JNK1 is reported as “+++ (IC50(off-target)/IC50(MKK4) > 100)”. Also, the 50% inhibitory concentration (IC50) on MKK4 is under 100 nM. The “Selectivity Braf” value at BRaf is given as “+++ (IC50(off-target)/IC50(MKK4) > 100)”.
For the molecule `O=C(c1c(F)ccc(NS(=O)(=O)CCC(F)(F)F)c1F)c1c[nH]c2ncc(-c3ccc(N4CCSCC4)nc3)cc12` [Example 80, N-(2,4-difluoro-3-(5-(6-thiomorpholinopyridin-3-yl)-1H-pyrrolo[2,3-b]pyridine-3-carbonyl)phenyl)-3,3,3-trifluoropropane-1-sulfonamide], on MKK7, the “Selectivity IVIKK7” value is “+++ (IC50(off-target)/IC50(MKK4) > 100)”. In addition, the “Selectivity JNK1” value at JNK1 is “++ (100 ≥ IC50(off-target)/IC50(MKK4) > 10)”. For the same molecule, the IC50 at MKK4 is under 100 nM. In addition, the “Selectivity Braf” value at BRaf is given as “++ (100 ≥ IC50(off-target)/IC50(MKK4) > 10)”.
`CCCS(=O)(=O)Nc1c(F)ccc(C(=O)c2c[nH]c3ncc(-c4cnc(C(N)=O)nc4)cc23)c1F` [Example 190, 5-(3-(2,4-difluoro-3-(propylsulfonamido)benzoyl)-1H-pyrrolo[2,3-b]pyridin-5-yl)pyrimidine-2-carboxamide]: the “Selectivity IVIKK7” value at MKK7 is “+++ (IC50(off-target)/IC50(MKK4) > 100)”. In addition, the “Selectivity JNK1” value on JNK1 was “+++ (IC50(off-target)/IC50(MKK4) > 100)”. The concentration for half-maximal inhibition (IC50) at MKK4 was under 100 nM. Moreover, the “Selectivity Braf” value on BRaf is listed as “+++ (IC50(off-target)/IC50(MKK4) > 100)”.
As for `CCCS(=O)(=O)Nc1c(F)ccc(C(=O)c2c[nH]c3ncc(-c4ccc(S(N)(=O)=O)cc4)cc23)c1F` [Example 220, 4-(3-(2,4-difluoro-3-(propylsulfonamido)benzoyl)-1H-pyrrolo[2,3-b]pyridin-5-yl)benzenesulfonamide], the “Selectivity IVIKK7” value at MKK7 was “+++ (IC50(off-target)/IC50(MKK4) > 100)”. Besides, the “Selectivity JNK1” value on JNK1 is “++ (100 ≥ IC50(off-target)/IC50(MKK4) > 10)”. Moreover, at MKK4, the IC50 is under 100 nM. At BRaf, the “Selectivity Braf” value was “++ (100 ≥ IC50(off-target)/IC50(MKK4) > 10)”.
As to `CCCS(=O)(=O)Nc1ccc(F)c(C(=O)c2c[nH]c3ncc(-c4ccc(S(N)(=O)=O)cc4)cc23)c1F` [Example 96, 4-(3-(2,6-difluoro-3-(propylsulfonamido)benzoyl)-pyrrolo[2,3-b]pyridin-5-yl)benzenesulfonamide], the remaining activity at 0.1 µM at MKK4 (single concentration 100 nM, read-out: Potency MKK4 (residual activity, assay at single concentration)) lay in the range of 50 to 70%.
For the molecule `CCCS(=O)(=O)Nc1ccc(F)c(C(=O)c2c[nH]c3ncc(-c4ccc(N)cc4)cc23)c1F` [Example 121, N-(3-(5-(4-aminophenyl)-1H-pyrrolo[2,3-b]pyridine-3-carbonyl)-2,4-difluorophenyl)propane-1-sulfonamide], the IC50 on MKK4 lay in the range of 100 to 1000 nM.

For the origin of these results see patent US11912701B2, “Protein kinase inhibitors for promoting liver regeneration or reducing or preventing hepatocyte death” (HEPAREGENIX GMBH, priority 2018, dated 2024).
